In paper PMC9389372 (RSC Advances, 2022):

Legend:
Assay type in all cases: biochemical
MAO-A = target: T1, MAO-A (Homo sapiens, UniProt P21397); assay: MAO-A inhibition, in vitro fluorometric method; details: for inhibition at 100 µM / inhibition at 1000 µM: read-out: MAO-A % inhibition
T1 sequence (P21397 1-527): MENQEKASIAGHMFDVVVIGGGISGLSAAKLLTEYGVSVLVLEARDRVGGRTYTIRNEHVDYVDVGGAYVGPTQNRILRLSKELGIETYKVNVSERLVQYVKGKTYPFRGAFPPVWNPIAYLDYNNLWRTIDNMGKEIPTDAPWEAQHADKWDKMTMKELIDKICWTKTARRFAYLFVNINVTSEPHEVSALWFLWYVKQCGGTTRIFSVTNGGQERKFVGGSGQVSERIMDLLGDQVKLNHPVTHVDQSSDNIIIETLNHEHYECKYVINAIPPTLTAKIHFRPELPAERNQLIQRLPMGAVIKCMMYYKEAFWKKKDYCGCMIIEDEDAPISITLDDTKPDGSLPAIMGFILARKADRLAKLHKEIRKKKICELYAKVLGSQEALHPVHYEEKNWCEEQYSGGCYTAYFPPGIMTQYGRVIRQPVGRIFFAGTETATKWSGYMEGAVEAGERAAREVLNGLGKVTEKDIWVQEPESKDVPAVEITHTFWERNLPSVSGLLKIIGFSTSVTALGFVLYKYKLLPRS

[1] = target: Human acetylcholinesterase (Homo sapiens, UniProt P22303); assay: AChE inhibition, modified Ellman's spectrophotometric method; details: for inhibition at 1000 µM: read-out: AChE % inhibition, 10^−3 M; for inhibition at 100 µM: read-out: AChE % inhibition, 10^−4 M
Chain of Human acetylcholinesterase (P22303 32-614): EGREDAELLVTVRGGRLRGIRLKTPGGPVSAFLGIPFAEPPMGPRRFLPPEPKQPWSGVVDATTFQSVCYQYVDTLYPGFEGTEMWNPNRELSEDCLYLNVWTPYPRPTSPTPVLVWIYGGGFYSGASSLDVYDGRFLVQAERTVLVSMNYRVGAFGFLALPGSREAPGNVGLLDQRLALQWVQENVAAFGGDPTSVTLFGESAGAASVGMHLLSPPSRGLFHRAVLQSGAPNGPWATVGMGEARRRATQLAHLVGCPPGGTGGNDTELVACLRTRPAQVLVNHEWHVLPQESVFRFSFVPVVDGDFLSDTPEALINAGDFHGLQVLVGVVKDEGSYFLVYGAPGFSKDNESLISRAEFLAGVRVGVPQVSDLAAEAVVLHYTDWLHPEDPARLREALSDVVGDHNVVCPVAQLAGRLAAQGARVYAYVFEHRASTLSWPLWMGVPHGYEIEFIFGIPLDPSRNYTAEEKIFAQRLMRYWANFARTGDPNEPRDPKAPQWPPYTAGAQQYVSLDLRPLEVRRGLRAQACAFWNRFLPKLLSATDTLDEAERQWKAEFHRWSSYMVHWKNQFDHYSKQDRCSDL

MAO-B = target: T2, MAO-B (Homo sapiens, UniProt P27338); assay: MAO-B inhibition, in vitro fluorometric method; details: for inhibition at 1000 µM: read-out: MAO-B % inhibition, 10^−3 M; for inhibition at 100 µM: read-out: MAO-B % inhibition, 10^−4 M
T2 sequence (P27338 1-520): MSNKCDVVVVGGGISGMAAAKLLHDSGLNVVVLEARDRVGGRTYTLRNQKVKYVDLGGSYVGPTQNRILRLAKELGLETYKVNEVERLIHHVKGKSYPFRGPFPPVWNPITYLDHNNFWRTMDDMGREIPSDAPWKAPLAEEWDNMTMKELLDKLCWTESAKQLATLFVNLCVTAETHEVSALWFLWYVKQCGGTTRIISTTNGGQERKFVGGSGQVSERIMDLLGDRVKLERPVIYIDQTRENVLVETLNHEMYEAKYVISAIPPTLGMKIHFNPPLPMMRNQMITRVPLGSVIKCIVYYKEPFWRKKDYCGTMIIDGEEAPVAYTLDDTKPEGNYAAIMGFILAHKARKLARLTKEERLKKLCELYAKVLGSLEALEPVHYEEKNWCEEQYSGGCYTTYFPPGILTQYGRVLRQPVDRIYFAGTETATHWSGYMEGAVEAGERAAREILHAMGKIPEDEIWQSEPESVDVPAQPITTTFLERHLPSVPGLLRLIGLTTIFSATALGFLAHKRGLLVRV

[2] = target: human butyrylcholinesterase (Homo sapiens, UniProt P06276); assay: BChE inhibition, modified Ellman's spectrophotometric method; details: for inhibition at 100 µM / inhibition at 1000 µM: read-out: BChE % inhibition
Chain of human butyrylcholinesterase (P06276 29-602): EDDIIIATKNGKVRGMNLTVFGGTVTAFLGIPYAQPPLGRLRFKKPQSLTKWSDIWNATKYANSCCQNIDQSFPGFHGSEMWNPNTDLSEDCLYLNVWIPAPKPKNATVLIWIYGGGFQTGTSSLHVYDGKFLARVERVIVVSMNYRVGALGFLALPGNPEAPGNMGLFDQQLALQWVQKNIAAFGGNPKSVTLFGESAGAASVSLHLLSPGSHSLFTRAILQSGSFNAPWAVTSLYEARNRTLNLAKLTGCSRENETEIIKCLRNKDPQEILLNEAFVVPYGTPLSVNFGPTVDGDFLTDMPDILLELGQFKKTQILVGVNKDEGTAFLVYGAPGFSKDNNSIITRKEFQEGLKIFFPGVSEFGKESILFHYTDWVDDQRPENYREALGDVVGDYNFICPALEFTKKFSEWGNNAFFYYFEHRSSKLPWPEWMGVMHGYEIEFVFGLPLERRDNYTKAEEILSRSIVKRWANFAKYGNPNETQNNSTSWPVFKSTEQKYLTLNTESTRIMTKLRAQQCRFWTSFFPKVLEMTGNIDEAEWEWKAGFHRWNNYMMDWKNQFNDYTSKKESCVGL

beta amyloid 1–42 (Aβ42) = beta amyloid 1–42 (Aβ42) (Homo sapiens, UniProt P05067); assay: fluorometric beta amyloid 1–42; details: for inhibition at 0.01 µM / inhibition at 0.1 µM / inhibition at 1 µM / inhibition at 10 µM: read-out: Percent inhibition of beta amyloid 1–42 (Aβ42) peptide aggregation
Chain of beta amyloid 1–42 (Aβ42) (P05067 672-713): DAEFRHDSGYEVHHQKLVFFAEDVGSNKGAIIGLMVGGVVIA

SMILES | IC50 (MAO-A) [µM] | inhibition at 100 µM (MAO-A) [%] | inhibition at 1000 µM (MAO-A) [%] | IC50 [1] [µM] | inhibition at 1000 µM [1] [%] | inhibition at 100 µM [1] [%] | IC50 (MAO-B) [µM] | inhibition at 1000 µM (MAO-B) [%] | inhibition at 100 µM (MAO-B) [%] | IC50 [2] [µM] | inhibition at 100 µM [2] [%] | inhibition at 1000 µM [2] [%] | IC50 (beta amyloid 1–42 (Aβ42)) [µM] | inhibition at 0.01 µM (beta amyloid 1–42 (Aβ42)) [%] | inhibition at 0.1 µM (beta amyloid 1–42 (Aβ42)) [%] | inhibition at 1 µM (beta amyloid 1–42 (Aβ42)) [%] | inhibition at 10 µM (beta amyloid 1–42 (Aβ42)) [%]
C=CCN1CCN(Cc2ccc(C(=O)Nc3nc4ccccc4s3)cc2)CC1 [4c, 4-((4-Allylpiperazine-1-yl)methyl)-N-(benzo[d]thiazol-2-yl)benzamide] | > 1000 | 34.6 ± 0.8 | 48.3 ± 0.9 | > 100 | 82.8 ± 1.5 | 48.2 ± 0.9 | > 100 | 69.6 ± 1.2 | 40.3 ± 0.9 | > 1000 | 20.2 ± 0.7 | 30.9 ± 0.7 |  |  |  |  | 
CN(C)CCCN1CCN(Cc2ccc(C(=O)Nc3nc4ccccc4s3)cc2)CC1 [4g, N-(Benzo[d]thiazol-2-yl)-4-((4-(3-(dimethylamino)propyl)piperazine-1-yl)methyl)benzamide] | > 100 | 40.1 ± 0.9 | 64.9 ± 1.1 | 0.0367 ± 0.0014 | 94.3 ± 1 |  | > 100 | 74.2 ± 1 | 42.5 ± 0.9 | > 1000 | 30.9 ± 0.8 | 41.5 ± 0.8 |  |  |  |  | 
CCN1CCN(Cc2ccc(C(=O)Nc3nc4ccccc4s3)cc2)CC1 [4b, N-(Benzo[d]thiazol-2-yl)-4-((4-ethylpiperazine-1-yl)methyl)benzamide] | > 1000 | 36.4 ± 0.8 | 46.5 ± 0.8 | > 100 | 85.6 ± 1.3 | 47.6 ± 0.8 | > 100 | 73.3 ± 1.2 | 42.3 ± 0.8 | > 1000 | 24.4 ± 0.6 | 35.7 ± 0.9 |  |  |  |  | 
CC(C)N1CCN(Cc2ccc(C(=O)Nc3nc4ccccc4s3)cc2)CC1 [4e, N-(Benzo[d]thiazol-2-yl)-4-((4-isopropylpiperazine-1-yl)methyl)benzamide] | > 1000 | 33.8 ± 0.7 | 44.7 ± 0.9 | > 100 | 83.9 ± 1.7 | 46.9 ± 0.8 | > 100 | 72.7 ± 1.1 | 44.6 ± 0.8 | > 1000 | 26.8 ± 0.7 | 39.1 ± 0.8 |  |  |  |  | 
CN1CCN(Cc2ccc(C(=O)Nc3nc4ccccc4s3)cc2)CC1 [4a, N-(Benzo[d]thiazol-2-yl)-4-((4-methylpiperazine-1-yl)methyl)benzamide] | > 100 | 38.6 ± 0.7 | 55.3 ± 0.9 | 0.0563 ± 0.0025 | 93.3 ± 1.4 |  | 0.0674 ± 0.0031 |  |  | > 1000 | 26.5 ± 0.8 | 38.6 ± 0.7 | 0.256 ± 0.011 | 47.4 ± 1.1 | 70.4 ± 2.8 | 86.4 ± 2.7 | 91.9 ± 3.1
CCN1CCN(Cc2ccc(C(=O)Nc3nc4cc(OC)ccc4s3)cc2)CC1 [4i, 4-((4-Ethylpiperazine-1-yl)methyl)-N-(5-methoxybenzo[d]thiazol-2-yl)benzamide] | > 1000 | 30.6 ± 0.7 | 43.8 ± 0.9 | > 100 | 86.9 ± 1.2 | 48 ± 0.9 | > 100 | 75.6 ± 1.2 | 41.7 ± 0.9 | > 1000 | 25.2 ± 0.9 | 39.8 ± 0.9 |  |  |  |  | 
O=C(NCCN1CCOCC1)c1ccc(Cl)cc1 [Moc., moclobemide, reference compound] |  | 82.1 ± 2.7 | 94.1 ± 2.8 |  |  |  |  |  |  |  |  |  |  |  |  |  | 
COc1ccc2sc(NC(=O)c3ccc(CN4CCN(C)CC4)cc3)nc2c1 [4h, N-(5-Methoxybenzo[d]thiazol-2-yl)-4-((4-methylpiperazine-1-yl)methyl)benzamide] | > 100 | 38.5 ± 0.6 | 60.5 ± 0.9 | 0.0649 ± 0.0029 | 92.3 ± 1.1 |  | 0.0851 ± 0.0038 |  |  | > 1000 | 27 ± 0.7 | 33.5 ± 0.8 | 0.296 ± 0.013 | 41.8 ± 1 | 64.8 ± 1.9 | 83.2 ± 3.3 | 90.7 ± 2.9
COc1ccc2sc(NC(=O)c3ccc(CN4CCN(CCN(C)C)CC4)cc3)nc2c1 [4m, 4-((4-(2-(Dimethylamino)ethyl)piperazine-1-yl)methyl)-N-(5-methoxybenzo[d]thiazol-2-yl)benzamide] | > 100 | 37.9 ± 0.8 | 61.3 ± 0.9 | 0.0278 ± 0.001 | 95.3 ± 1.2 |  | 0.0567 ± 0.0022 |  |  | > 1000 | 31.9 ± 0.8 | 42.4 ± 0.8 | 0.199 ± 0.0088 | 53.6 ± 1 | 72.5 ± 2.2 | 88.9 ± 2 | 94.7 ± 2.1
COc1ccc2sc(NC(=O)c3ccc(CN4CCN(C(C)C)CC4)cc3)nc2c1 [4l, 4-((4-Isopropylpiperazine-1-yl)methyl)-N-(5-methoxybenzo[d]thiazol-2-yl)benzamide] | > 1000 | 34 ± 0.9 | 40.6 ± 0.9 | > 100 | 81.7 ± 1.3 | 48.1 ± 0.9 | > 100 | 77.9 ± 1.4 | 40.7 ± 0.9 | > 1000 | 24.3 ± 0.7 | 38.1 ± 0.9 |  |  |  |  | 
C#CCN1CCN(Cc2ccc(C(=O)Nc3nc4ccccc4s3)cc2)CC1 [4d, N-(Benzo[d]thiazol-2-yl)-4-((4-(prop-2-yn-1-yl)piperazine-1-yl)methyl)benzamide] | > 100 | 39.7 ± 0.9 | 57.6 ± 0.9 | 0.0896 ± 0.0032 | 91.6 ± 1.3 |  | 0.11 ± 0.0043 |  |  | > 1000 | 28.4 ± 0.9 | 37.1 ± 0.8 | 0.242 ± 0.0097 | 36.2 ± 1 | 55.2 ± 1.4 | 81.5 ± 2.5 | 89.8 ± 3
COc1ccc2sc(NC(=O)c3ccc(CN4CCN(CCCN(C)C)CC4)cc3)nc2c1 [4n, 4-((4-(3-(Dimethylamino)propyl)piperazine-1-yl)methyl)-N-(5-methoxybenzo[d]thiazol-2-yl)benzamide] | > 100 | 38.8 ± 0.7 | 60.1 ± 0.8 | 0.0421 ± 0.0018 | 95.3 ± 1.7 |  | > 100 | 70.3 ± 1.3 | 41 ± 0.9 | > 1000 | 30.4 ± 0.9 | 40.9 ± 0.9 |  |  |  |  | 
C=CCN1CCN(Cc2ccc(C(=O)Nc3nc4cc(OC)ccc4s3)cc2)CC1 [4j, 4-((4-Allylpiperazine-1-yl)methyl)-N-(5-methoxybenzo[d]thiazol-2-yl)benzamide] | > 1000 | 32.9 ± 0.7 | 45.2 ± 0.9 | > 100 | 82.5 ± 1.5 | 47.6 ± 0.8 | > 100 | 74.5 ± 1.1 | 43.5 ± 0.8 | > 1000 | 22.6 ± 0.8 | 32.9 ± 0.8 |  |  |  |  | 
C#CCN1CCN(Cc2ccc(C(=O)Nc3nc4cc(OC)ccc4s3)cc2)CC1 [4k, N-(5-Methoxybenzo[d]thiazol-2-yl)-4-((4-(prop-2-yn-1-yl)piperazine-1-yl)methyl)benzamide] | > 100 | 39.9 ± 0.8 | 58.6 ± 0.9 | 0.102 ± 0.0048 | 90.3 ± 1.5 |  | 0.124 ± 0.0058 |  |  | > 1000 | 26.4 ± 0.7 | 30.4 ± 0.7 |  | 35.4 ± 1 | 48.9 ± 1.3 | 77.7 ± 2.7 | 87.1 ± 3.2
